Each structure is given as a SMILES string. “Also recorded” adds a separate entry of the source.

Experiment [1] has as its system E1371Q- and W1145Y/E1371Q-CFTR. In words: Intracellular SCN- blockade, I-V voltage ramps on excised patch. The experiment is classed as cell-based. As to conditions: 2 mM or 10 mM cytoplasmic SCN-. The text has this: Also, Sonawane and Verkman
(2008), which carried out a structure-activity relationship study, could have been considered to understand whether the moieties of CFTRinh-172 that were found important for inhibitory activity correspond to interactions with specific parts of CFTR protein.
We thank the reviewer for pointing this out. Now, these two papers are both cited, and their contents are incorporated into the 2nd and 10th paragraph of the Discussion.
4) As a control, a CFTR inhibitor having a completely different structure could have been used to check that potency was not affected by mutagenesis.
Most CFTR inhibitors block CFTR pore from the cytoplasmic side in a voltage-dependent manner, such as glibenclamide (Sheppard and Robinson, 1997), NPPB (Walsh et al., 1999), and DNDS (Linsdell and Hanrahan, 1996). Since these CFTR inhibitors likely block the open channel by traveling down the internal vestibule to the narrow region of the pore, the mutations introduced to the Inh-172’s binding site, which is just below the narrow region, would inevitably affect the actions of these CFTR blockers. […]
Comparison of intracellular SCN- blockade on E1371Q- and W1145Y/E1371Q-CFTR. […] Fraction of block was calculated according to the equation “Fraction of block = 1 – (ISCN)/I0” where ISCN and I0 represent the blocked and unblocked current at a given voltage on the same patch. […]

The test system of experiment [2] is "lock-opened" CFTR with dimerized NBDs. Also noted: method as in Zhou et al., 2002. As to conditions: ref Zhou et al., 2002; cited from earlier work.

Regarding `N#CS` [SCN-, thiocyanate], the “potency of SCN- (fraction of block), E1371Q- vs W1145Y/E1371Q-CFTR” value in experiment [1] is listed as “barely affected; also recorded: does not differ”. Turning to `COc1ccc(Cl)cc1C(=O)NCCc1ccc(S(=O)(=O)NC(=O)NC2CCCCC2)cc1` [glibenclamide], in experiment [2], the off-rate is listed as ~ 10 s-1.

The record behind these values is paper PMC11303713, “Allosteric inhibition of CFTR gating by CFTRinh-172 binding in the pore” (Nature Communications, 2024).
